Measured values: paper PMC7020476, “New Insights into the Type II Toxins from the Sea Anemone Heteractis crispa” (Toxins, 2020)
Entries after “also recorded” stand apart in the source; their conditions may differ. Where two headings read alike, the source gives them in different places. Bridges are numbered along the chain shown (N, C = ends). Roman numbers before positions name the chains, in order. Where no end group is shown, it is not given here.

Experiments:
rNaV1.2 = target: T1, rNaV1.2 (Rattus norvegicus, UniProt P04775); assay: Two-electrode voltage-clamp of NaV1.2 expressed in Xenopus laevis oocytes; assay type: cell-based; settings: for EC50: read-out: half-maximal effective concentration (EC50), NaV1.2
T1 construct: expressed in transfected cells; host or cells: Xenopus laevis oocytes injected with cRNA
Source text: (§1) For the expression of NaV channels (hNaV1.1, rNaV1.2, rNaV1.3, rNaV1.4, hNaV1.5, mNaV1.6, rNaV1.8, the invertebrate channels BgNaV1.1, VdNaV1, and the auxiliary subunits rβ1, hβ1, and TipE) in Xenopus oocytes, the linearized plasmids were transcribed using the T7 or SP6 mMessage-mMachine Transcription Kit (Thermo Fisher Scientific, Waltham, MA, USA). The harvesting of stage V–VI oocytes from anesthetized female X. laevis frogs was previously described with a protocol adjustment in which the frogs were anesthetized by placement in 0.1% tricaine (amino benzoic acid ethyl ester; Millipore Sigma, Burlington, MA, USA) solution. Oocytes were injected with 50 nL of cRNA at a concentration of 1 ng/nL using a microinjector (Drummond Scientific Company, Broomall, PA, USA). The oocytes were incubated in a solution containing (mM) the following: NaCl, 96; KCl, 2; CaCl2, 1.8; MgCl2, 2; and HEPES, 5 (pH 7.4). This solution was supplemented with 50 mg/L gentamicin sulfate.
(§2) Two-electrode voltage-clamp recordings were performed at room temperature (18–22 °C) using a GeneClamp 500 amplifier (Molecular Devices, San Jose, CA, USA) controlled by a pClamp data acquisition system (Axon Instruments, Union City, CA, USA). Whole-cell currents from oocytes were recorded 1–4 d after mRNA injection. Bath solution composition was (mM) as follows: NaCl, 96; KCl, 2; CaCl2, 1.8; MgCl2, 2; and HEPES, 5 (pH 7.4). Voltage and current electrodes were filled with 3 M KCl. The resistances of both electrodes were kept between 0.8 and 1.5 MΩ. The elicited currents were filtered at 1 kHz and sampled at 20 kHz by using a 4-pole low-pass Bessel filter. Leak subtraction was performed using a -P/4 protocol.
(§3) For the electrophysiological analysis of toxins, a number of protocols were applied from a holding potential of −90 mV with a start-to-start frequency of 0.2 Hz. Na^+ current traces were evoked by 100-ms depolarizations to Vmax (the voltage corresponding to maximal Na^+ current in control conditions). The current–voltage relationships were determined by 50-ms step depolarizations between −90 and 70 mV, using 5 mV increments. The Na^+ conductance (gNa) was calculated from the currents according to Ohm’s law: gNa = INa/(V − Vrev), where INa represents the Na^+ current peak amplitude at a given test potential V, and Vrev is the reversal potential. The values of gNa were plotted as a function of voltage and fitted using the Boltzmann function: gNa/gmax = [1 + (exp(Vg − V)/k)] −1, where gmax represents maximal gNa, Vg is the voltage corresponding to half-maximal conductance, and k is the slope factor. Toxin–induced effects on the steady–state inactivation were investigated by using a standard two-step protocol. In this protocol, 100 ms conditioning 5 mV step prepulses ranging from −90 to 70 mV were followed by a 50-ms test pulse to −30 or −10 mV. Data were normalized to the maximal Na^+ current amplitude, plotted against prepulse potential, and fitted by using the Boltzmann function: INa/Imax = {(1 − C)/(1 + exp[(V − Vh)/k)]} + C, where Imax is the maximal INa, Vh is the voltage corresponding to half-maximal inactivation, V is the test voltage, k is the slope factor, and C is a constant representing a non-inactivating persistent fraction (close to 0 in control). […] I30ms/Ipeak was measured at the same test voltage after addition of the toxin. […]

rNaV1.3 = assay: Two-electrode voltage-clamp of NaV1.3 expressed in Xenopus laevis oocytes; assay type: cell-based, rat; settings: 10 μM toxin
Source text: as §1, with “Oocytes were injected with 50 nL of cRNA at a concentration of 1 ng/nL using a microinjector (Drummond Scientific Company, Broomall, PA, USA). The oocytes were incubated in a solution containing (mM) the following: NaCl, 96; KCl, 2; CaCl2, 1.8; MgCl2, 2; and HEPES, 5 (pH 7.4). This solution was supplemented with 50 mg/L gentamicin sulfate.” left out
Two-electrode voltage-clamp recordings were performed at room temperature (18–22 °C) using a GeneClamp 500 amplifier (Molecular Devices, San Jose, CA, USA) controlled by a pClamp data acquisition system (Axon Instruments, Union City, CA, USA). Whole-cell currents from oocytes were recorded 1–4 d after mRNA injection. […]
For the electrophysiological analysis of toxins, a number of protocols were applied from a holding potential of −90 mV with a start-to-start frequency of 0.2 Hz. […] The current–voltage relationships were determined by 50-ms step depolarizations between −90 and 70 mV, using 5 mV increments. […] I30ms/Ipeak was measured at the same test voltage after addition of the toxin. […]

mNaV1.6 = target: T2, mNaV1.6 (Mus musculus, UniProt Q9WTU3); assay: Two-electrode voltage-clamp of NaV1.6 expressed in Xenopus laevis oocytes; assay type: cell-based; settings: for EC50: amplitude of toxin-induced effect at 30 ms (I30ms), Hill fit, Xenopus oocytes, means ± sem, n ≥ 5, read-out: half-maximal effective concentration (EC50), NaV1.6
T2 construct: expressed in transfected cells; host or cells: Xenopus laevis oocytes injected with cRNA
Source text: as §1, §2
as §3, with “protocol.” for “protocol. In this protocol, 100 ms conditioning 5 mV step prepulses ranging from −90 to 70 mV were followed by a 50-ms test pulse to −30 or −10 mV. Data were normalized to the maximal Na^+ current amplitude, plotted against prepulse potential, and fitted by using the Boltzmann function: INa/Imax = {(1 − C)/(1 + exp[(V − Vh)/k)]} + C, where Imax is the maximal INa, Vh is the voltage corresponding to half-maximal inactivation, V is the test voltage, k is the slope factor, and C is a constant representing a non-inactivating persistent fraction (close to 0 in control).”

BgNaV1 = BgNaV1 (Blattella germanica, UniProt O01306); assay: Two-electrode voltage-clamp of BgNaV1 expressed in Xenopus laevis oocytes; assay type: cell-based, insect; settings: for EC50: amplitude of toxin-induced effect at 30 ms (I30ms), Hill fit, Xenopus oocytes, means ± sem, n ≥ 5, read-out: half-maximal effective concentration (EC50), BgNaV1
Source text: as §1, §2
as §3, with “protocol.” for “protocol. In this protocol, 100 ms conditioning 5 mV step prepulses ranging from −90 to 70 mV were followed by a 50-ms test pulse to −30 or −10 mV. Data were normalized to the maximal Na^+ current amplitude, plotted against prepulse potential, and fitted by using the Boltzmann function: INa/Imax = {(1 − C)/(1 + exp[(V − Vh)/k)]} + C, where Imax is the maximal INa, Vh is the voltage corresponding to half-maximal inactivation, V is the test voltage, k is the slope factor, and C is a constant representing a non-inactivating persistent fraction (close to 0 in control).”

[1] = test system: NaV channels (NaV1.1–NaV1.6, NaV1.8, BgNaV1, VdNaV1); assay: Electrophysiological screening on nine NaV subtypes (overall statements); assay type: cell-based; settings: for modulation of NaV channels (in words): 10 μM toxin, Xenopus oocytes; for phyla selectivity (in words): mammalian vs. insect/arachnid, 10 μM
Source text: as §1, §2
as §3, with “protocol.” for “protocol. In this protocol, 100 ms conditioning 5 mV step prepulses ranging from −90 to 70 mV were followed by a 50-ms test pulse to −30 or −10 mV. Data were normalized to the maximal Na^+ current amplitude, plotted against prepulse potential, and fitted by using the Boltzmann function: INa/Imax = {(1 − C)/(1 + exp[(V − Vh)/k)]} + C, where Imax is the maximal INa, Vh is the voltage corresponding to half-maximal inactivation, V is the test voltage, k is the slope factor, and C is a constant representing a non-inactivating persistent fraction (close to 0 in control).”

mice [2] = assay: Toxicity in mice; assay type: in vivo, adult male CD-1 mice; settings: intraperitoneal, six animals per sample, 24 hours
Method: The care and use of animals were performed in an agreement with the requirements of local and international legislation as well as of the Directive 2010/63/EU for animal experiments.
Adult male CD-1 mice weighing 20–22 g were kept at room temperature with a 12-h light/dark cycle and with ad libitum access to food and water. Each animal was used only once and was euthanized in the CO2 chamber immediately after completion of the experiment. Animal procedures were approved by the Animal Care and Use Committee of the PIBOC FEB RAS.
The peptides (0.15–300 μg) were dissolved in 100 μL of sterile saline (0.9% NaCl) and injected intraperitoneally. Six animals were used per sample. To assess peptide toxicity, the maximum non-toxic dose was determined as an amount (mg) of the tested peptide per kg of the mouse weight, at which there was no observed toxic or adverse effect within 24 hours.

[3] = Secondary structure content by CD spectroscopy; assay type: physicochemical; settings: water, 20 °C; for Unordered / α-Helices αD / α-Helices αR / α-Helices αtot: CONTIN; for α-Helices αD: distorted; for α-Helices αR: regular; for α-Helices αtot: sum
Method: CD spectra were measured in the range from 320 to 190 nm with a Chirascan-plus spectropolarimeter (Applied Photophysics, Leatherhead, UK). The instrument was calibrated with 10-camphorsulfonic acid ammonium salt, and a ratio of 2:1 was found between the positive CD band at 290 nm and the negative CD band at 192 nm. The measurements were carried out in bidistilled water at 20 °C using 0.1- and 1-cm path length cells in amide and aromatic regions, respectively. In the amide region (190–240 nm) of the CD spectrum, molar ellipticity [θ]λ (deg cm^2 dmol^−1) was calculated as [θ]λ = θobs × MRW/10 × C × L, where θobs is the observed ellipticity in degrees, MRW is the mean amino acid residue weight of 110 Da, L is the path length (cm), and C is the protein concentration (g/mL). In the aromatic region (240–320 nm) of the CD spectrum, results were expressed as molar ellipticity (the average molecular masses of RpII, RTX-III, and RTX-VI are 5378, 5287, and 5240 Da, respectively). The secondary structure contents were determined according to the method of Provencher and Glöckner, using their CONTIN program.

mice [4] = settings: cited from earlier work
Source text: The only difference observed within our electrophysiological experiments that may underlie this phenomenon is a different activity of both toxins on NaV1.2 and NaV1.3 subtypes (Figure 5, Table 2). Even though tetrodotoxin (TTX)-sensitive brain-type sodium channel isoforms NaV1.1–NaV1.3 and NaV1.6 are the main channels e ...

[5] = amplitude of toxin-induced effect at 30 ms (I30ms), Hill fit, Xenopus oocytes, means ± sem, n ≥ 5

T2 sequence (Q9WTU3 whole entry): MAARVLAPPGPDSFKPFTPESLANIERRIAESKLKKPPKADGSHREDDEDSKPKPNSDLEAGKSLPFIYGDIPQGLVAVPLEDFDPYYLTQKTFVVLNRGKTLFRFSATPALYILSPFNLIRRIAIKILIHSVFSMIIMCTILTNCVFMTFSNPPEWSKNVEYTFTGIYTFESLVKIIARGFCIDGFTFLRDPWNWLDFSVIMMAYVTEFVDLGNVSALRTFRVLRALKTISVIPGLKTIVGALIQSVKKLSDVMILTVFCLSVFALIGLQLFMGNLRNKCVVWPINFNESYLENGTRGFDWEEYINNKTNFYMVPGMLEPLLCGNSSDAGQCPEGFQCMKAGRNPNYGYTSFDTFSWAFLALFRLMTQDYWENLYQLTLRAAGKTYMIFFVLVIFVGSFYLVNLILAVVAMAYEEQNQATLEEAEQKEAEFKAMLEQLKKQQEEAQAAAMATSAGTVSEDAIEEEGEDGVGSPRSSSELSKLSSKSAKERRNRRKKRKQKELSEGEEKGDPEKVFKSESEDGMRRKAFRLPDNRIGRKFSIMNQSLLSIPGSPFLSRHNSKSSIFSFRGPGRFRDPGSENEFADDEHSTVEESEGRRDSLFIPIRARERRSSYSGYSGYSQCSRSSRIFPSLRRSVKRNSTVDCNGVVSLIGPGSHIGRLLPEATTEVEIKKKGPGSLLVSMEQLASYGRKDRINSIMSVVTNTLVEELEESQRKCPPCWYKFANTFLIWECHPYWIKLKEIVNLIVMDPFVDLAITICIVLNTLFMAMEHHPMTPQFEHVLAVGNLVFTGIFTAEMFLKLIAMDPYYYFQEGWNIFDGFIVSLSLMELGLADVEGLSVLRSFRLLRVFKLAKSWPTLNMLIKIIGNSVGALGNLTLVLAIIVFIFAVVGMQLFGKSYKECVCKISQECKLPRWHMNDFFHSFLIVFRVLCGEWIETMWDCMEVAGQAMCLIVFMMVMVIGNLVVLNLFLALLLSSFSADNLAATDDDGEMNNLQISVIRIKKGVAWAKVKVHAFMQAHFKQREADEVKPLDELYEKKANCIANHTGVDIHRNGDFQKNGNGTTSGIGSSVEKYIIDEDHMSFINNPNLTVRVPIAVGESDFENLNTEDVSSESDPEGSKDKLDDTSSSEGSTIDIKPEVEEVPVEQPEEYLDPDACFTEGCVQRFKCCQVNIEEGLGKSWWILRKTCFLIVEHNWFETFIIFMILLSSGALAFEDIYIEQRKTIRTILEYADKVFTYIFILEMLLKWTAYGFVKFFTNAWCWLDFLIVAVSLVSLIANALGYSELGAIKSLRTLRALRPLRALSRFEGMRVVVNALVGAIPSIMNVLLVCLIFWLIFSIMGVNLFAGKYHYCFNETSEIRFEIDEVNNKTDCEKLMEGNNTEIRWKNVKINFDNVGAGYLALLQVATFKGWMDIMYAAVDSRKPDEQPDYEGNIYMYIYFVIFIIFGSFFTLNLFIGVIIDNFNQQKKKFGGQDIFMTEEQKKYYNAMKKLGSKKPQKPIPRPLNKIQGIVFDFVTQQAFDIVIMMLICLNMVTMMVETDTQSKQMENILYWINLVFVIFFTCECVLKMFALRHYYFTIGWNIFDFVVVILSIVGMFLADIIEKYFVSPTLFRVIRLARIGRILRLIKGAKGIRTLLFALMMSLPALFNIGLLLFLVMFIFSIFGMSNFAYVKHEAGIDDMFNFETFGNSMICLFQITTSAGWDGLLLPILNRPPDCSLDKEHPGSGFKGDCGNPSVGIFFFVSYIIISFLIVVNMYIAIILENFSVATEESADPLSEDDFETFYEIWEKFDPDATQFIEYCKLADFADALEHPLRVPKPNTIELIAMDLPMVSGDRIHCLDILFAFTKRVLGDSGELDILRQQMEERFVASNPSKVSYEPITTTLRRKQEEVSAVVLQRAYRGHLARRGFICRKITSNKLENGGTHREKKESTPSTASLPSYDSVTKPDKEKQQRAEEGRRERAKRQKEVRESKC
T1 sequence (P04775 whole entry): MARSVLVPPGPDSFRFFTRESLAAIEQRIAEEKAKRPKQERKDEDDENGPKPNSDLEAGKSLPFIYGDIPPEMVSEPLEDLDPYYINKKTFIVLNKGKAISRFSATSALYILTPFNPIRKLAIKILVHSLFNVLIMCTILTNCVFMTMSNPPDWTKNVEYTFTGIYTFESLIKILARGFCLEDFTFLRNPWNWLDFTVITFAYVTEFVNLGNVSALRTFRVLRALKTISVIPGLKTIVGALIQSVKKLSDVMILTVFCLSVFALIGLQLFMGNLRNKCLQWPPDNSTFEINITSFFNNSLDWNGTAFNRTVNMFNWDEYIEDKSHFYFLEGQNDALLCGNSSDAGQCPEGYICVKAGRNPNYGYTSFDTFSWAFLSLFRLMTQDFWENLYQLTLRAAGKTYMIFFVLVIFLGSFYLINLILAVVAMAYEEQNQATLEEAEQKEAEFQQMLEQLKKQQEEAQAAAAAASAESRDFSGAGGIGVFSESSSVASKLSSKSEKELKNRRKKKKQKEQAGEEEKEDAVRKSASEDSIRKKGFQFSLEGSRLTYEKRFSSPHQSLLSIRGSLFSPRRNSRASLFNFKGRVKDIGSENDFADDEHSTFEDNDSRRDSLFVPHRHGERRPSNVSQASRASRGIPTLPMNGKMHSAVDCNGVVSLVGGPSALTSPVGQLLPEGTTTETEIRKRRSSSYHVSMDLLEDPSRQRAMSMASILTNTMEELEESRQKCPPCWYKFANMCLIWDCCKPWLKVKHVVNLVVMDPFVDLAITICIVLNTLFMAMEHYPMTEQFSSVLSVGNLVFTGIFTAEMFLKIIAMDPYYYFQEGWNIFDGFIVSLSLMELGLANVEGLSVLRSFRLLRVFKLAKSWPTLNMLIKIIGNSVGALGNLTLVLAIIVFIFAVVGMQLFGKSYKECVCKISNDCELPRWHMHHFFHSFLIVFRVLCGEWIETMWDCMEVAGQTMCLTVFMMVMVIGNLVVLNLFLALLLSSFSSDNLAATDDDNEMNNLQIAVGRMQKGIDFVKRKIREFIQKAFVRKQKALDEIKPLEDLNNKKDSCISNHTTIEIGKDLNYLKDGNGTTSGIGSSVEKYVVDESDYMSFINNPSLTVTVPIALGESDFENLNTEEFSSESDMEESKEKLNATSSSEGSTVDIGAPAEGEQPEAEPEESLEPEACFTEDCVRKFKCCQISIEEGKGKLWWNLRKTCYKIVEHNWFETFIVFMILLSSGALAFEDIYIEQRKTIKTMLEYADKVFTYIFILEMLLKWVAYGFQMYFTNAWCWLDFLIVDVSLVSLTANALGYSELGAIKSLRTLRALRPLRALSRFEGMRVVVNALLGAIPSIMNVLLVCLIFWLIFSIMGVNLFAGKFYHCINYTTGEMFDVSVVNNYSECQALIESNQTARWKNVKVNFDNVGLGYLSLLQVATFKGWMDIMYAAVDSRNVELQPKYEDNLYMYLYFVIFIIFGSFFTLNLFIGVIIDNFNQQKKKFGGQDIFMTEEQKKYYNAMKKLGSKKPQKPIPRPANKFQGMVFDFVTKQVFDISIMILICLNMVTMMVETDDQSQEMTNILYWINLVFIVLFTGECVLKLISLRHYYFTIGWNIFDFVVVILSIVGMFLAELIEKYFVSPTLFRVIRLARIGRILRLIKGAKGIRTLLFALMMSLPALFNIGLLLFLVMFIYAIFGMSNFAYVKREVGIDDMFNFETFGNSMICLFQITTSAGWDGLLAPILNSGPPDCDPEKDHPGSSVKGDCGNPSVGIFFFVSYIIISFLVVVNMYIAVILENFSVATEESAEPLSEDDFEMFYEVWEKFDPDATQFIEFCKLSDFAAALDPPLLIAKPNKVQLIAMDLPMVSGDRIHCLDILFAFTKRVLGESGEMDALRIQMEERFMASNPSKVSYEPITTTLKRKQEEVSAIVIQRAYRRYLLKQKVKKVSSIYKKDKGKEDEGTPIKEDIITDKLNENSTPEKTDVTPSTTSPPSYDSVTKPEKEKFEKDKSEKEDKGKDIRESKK

Substance | effect on NaV1.2 current (in words) (rNaV1.2; Xenopus oocytes) | EC50 (rNaV1.2; [5]) [nM] | relative activity on NaV1.2 (in words) (rNaV1.2; compared to δ-SHTX-Hcr1f (Figure 6, Table 3)) | effect on NaV1.3 current (in words) (rNaV1.3) | EC50 (mNaV1.6) [nM] | relative potency on NaV1.6 (in words) (mNaV1.6; compared with RTX-III) | EC50 (BgNaV1) [nM] | relative potency on BgNaV1 (in words) (BgNaV1; compared with RTX-III) | modulation of NaV channels (in words) [1] | phyla selectivity (in words) [1] | LD50 (mice [2]; mice) [mg/kg] | α-helices (in words) [3] | Unordered [3] [percentage] | α-Helices αD [3] [percentage] | α-Helices αR [3] [percentage] | α-Helices αtot [3] [percentage] | half-maximal effective concentration (EC50), NaV1.2 (rNaV1.2; [5]) | LD50 (mice [4]; ref [10]) [mg/kg] | toxicity in mice (in words) (mice [2]; CD-1 mice) | LD50 (mice [4]; ref [8]) [mg/kg]
I: TAPLTGYVDLGYCNEGWEKCASYYSPIAECCRKKK-NH2 / II: GNCKCDDEGPYV-OH (disulfide I:13-I:31, I:20-II:5, I:30-II:3) [RTX-VI] | modulated another subtype of the CNS channels, NaV1.2; also recorded: enhanced current through NaV1.2 | 121 ± 19.3 | lower activity on the NaV1.2 subtype compared to δ-SHTX-Hcr1f | abolished its effect on the NaV1.3 current | 282 ± 7 | more potent inhibitor of both NaV1.6 and BgNaV1 channels than RTX-III | 761 ± 25.6 | more potent inhibitor of both NaV1.6 and BgNaV1 channels than RTX-III | modulate insect, arachnid (BgNaV1, VdNaV1), and mammalian CNS NaV channels (NaV1.1–NaV1.3, NaV1.6) but not skeletal muscle (NaV1.4), cardiac (NaV1.5), or PNS (NaV1.8) channels; also recorded: did not affect currents of skeletal muscle NaV1.4, cardiac NaV1.5, and PNS NaV1.8 channels | not to be phyla-selective; also recorded: non-phyla-selective | > 10 | practically absent | 38.3 | 0.3 | 0.0 | 0.3 |  |  |  | 
H-GNCKCDDEGPYVRTAPLTGYVDLGYCNEGWEKCASYYSPIAECCRKKK-NH2 (disulfide 3-43, 5-33, 26-44) [RTX-III] |  |  |  | exhibited substantial activating effects on NaV1.3; also recorded: acted similarly on NaV1.3 | 382 ± 5.8 |  | 978 ± 62.3 |  | modulate insect, arachnid (BgNaV1, VdNaV1), and mammalian CNS NaV channels (NaV1.1–NaV1.3, NaV1.6) but not skeletal muscle (NaV1.4), cardiac (NaV1.5), or PNS (NaV1.8) channels; also recorded: did not affect currents of skeletal muscle NaV1.4, cardiac NaV1.5, and PNS NaV1.8 channels | not to be phyla-selective; also recorded: non-phyla-selective |  | practically absent | 40.1 | 0.4 | 0.1 | 0.5 | Not active | 0.0025 |  | 
ASCKCDDDGPDVRSATFTGTVDFWNCNEGWEKCTAVYTPVASCCRKKK-NH2 (disulfide 3-43, 5-33, 26-44) [δ-SHTX-Hcr1f] |  | 79.5 ± 4.3 |  |  | 183 ± 8.2 |  | 226 ± 12.3 |  |  |  |  |  |  |  |  |  |  |  | consistent with the previously reported data for RpII | 4.2
